From PubChem BioAssay AID256 (DTP/NCI, 2004)
“And” between values parts separate entries of the source, which are not always exact repeats. Equal values may be shown once. Inconclusive results and toxic doses are left out. Rule for the calls: active = survival T/C of 150% or more; inactive = T/C below 125% in these data.

Test system: CD2F1 mice, L1210 leukemia ip, survival T/C
Assay: NCI In Vivo Anticancer Drug Screen. Data for tumor model L1210 Leukemia (intraperitoneal) in CD2F1 (CDF1) mice
Details: higher = longer survival
In short: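 Implant tumor; dose compound or vehicle; measure endpoint in both groups; report treated divided by control.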

[1] = endpoint: mean survival time, dose: 100.0 mg/kg/injection, schedule: Q01DX001 (ip), vehicle: saline with Tween-80
[2] = endpoint: mean survival time, dose: 200.0 mg/kg/injection, schedule: Q01DX001 (ip), vehicle: saline with Tween-80
[3] = endpoint: mean survival time, dose: 400.0 mg/kg/injection, schedule: Q01DX001 (ip), vehicle: saline with Tween-80
[4] = endpoint: mean survival time, dose: 50.0 mg/kg/injection, schedule: Q04DX003 (ip), vehicle: saline with Tween-80
[5] = endpoint: mean survival time, dose: 100.0 mg/kg/injection, schedule: Q04DX003 (ip), vehicle: saline with Tween-80
[6] = endpoint: mean survival time, dose: 200.0 mg/kg/injection, schedule: Q04DX003 (ip), vehicle: saline with Tween-80
[7] = endpoint: mean survival time, dose: 400.0 mg/kg/injection, schedule: Q04DX003 (ip), vehicle: saline with Tween-80
[8] = endpoint: mean survival time, dose: 100.0 mg/kg/injection, schedule: Q01DX009 (ip), vehicle: saline with Tween-80
[9] = endpoint: mean survival time, dose: 200.0 mg/kg/injection, schedule: Q01DX009 (ip), vehicle: saline with Tween-80
[10] = endpoint: mean survival time, dose: 400.0 mg/kg/injection, schedule: Q01DX009 (ip), vehicle: saline with Tween-80
[11] = endpoint: mean survival time, dose: 25.0 mg/kg/injection, schedule: Q01DX009 (ip), vehicle: saline with Tween-80
[12] = endpoint: mean survival time, dose: 50.0 mg/kg/injection, schedule: Q01DX009 (ip), vehicle: saline with Tween-80
[13] = endpoint: mean survival time, dose: 100.0 mg/kg/injection, schedule: Q04DX002 (ip), vehicle: saline with Tween-80

Measured: T/C

CC[N+](C)(CC)Cc1ccc([NH-])c([NH-])c1.[Cl][Pt+2][Cl]
inactive: endpoint: mean survival time, dose: 3.13 mg/kg/injection, schedule: Q04DX003 (ip), vehicle: water 90 % of control | endpoint: mean survival time, dose: 6.25 mg/kg/injection, schedule: Q04DX003 (ip), vehicle: water 95 % of control | endpoint: mean survival time, dose: 12.5 mg/kg/injection, schedule: Q04DX003 (ip), vehicle: water 94 % of control

Nc1cncc([N+](=O)[O-])c1N
inactive: [1] 98 % of control | [2] 101 % of control | [3] 101 % of control

Cc1ccccc1OCc1ccccc1
inactive: [4] 104 % of control | [5] 98 % of control and 101 % of control | [6] 102 % of control and 104 % of control | [7] 94 % of control

S=c1[n-]c2ccccc2s1.S=c1[n-]c2ccccc2s1.[Cl][Pt+2][Cl]
inactive: endpoint: mean survival time, dose: 25.0 mg/kg/injection, schedule: Q04DX003 (ip), vehicle: saline with Tween-80 95 % of control | [4] 88 % of control | [5] 93 % of control | [6] 90 % of control

O=C(O)/C=C/C(=O)NCc1ccccc1
inactive: [8] 104 % of control | [9] 94 % of control | [10] 98 % of control

COCCCNC1=C(C#N)C(=O)NC(c2cccc([N+](=O)[O-])c2)S1 (stereo unspecified)
inactive: endpoint: mean survival time, dose: 12.5 mg/kg/injection, schedule: Q01DX009 (ip), vehicle: saline with Tween-80 94 % of control | [11] 96 % of control | [12] 96 % of control | [8] 100 % of control | [9] 102 % of control | [10] 103 % of control

CCOP(=O)(OCC)/C(C#N)=C\c1ccc(OC)c(OC)c1
inactive: [8] 98 % of control | [9] 94 % of control | [10] 100 % of control

O=C1/C(=C/c2cccc([N+](=O)[O-])c2)CCc2ccccc21
inactive: endpoint: mean survival time, dose: 100.0 mg/kg/injection, schedule: Q01DX009 (ip), vehicle: saline 94 % of control | endpoint: mean survival time, dose: 200.0 mg/kg/injection, schedule: Q01DX009 (ip), vehicle: saline 97 % of control | endpoint: mean survival time, dose: 400.0 mg/kg/injection, schedule: Q01DX009 (ip), vehicle: saline 91 % of control

C=C[CH2][Sn]([c]1ccccc1)([c]1ccccc1)[c]1ccccc1
inactive: [4] 87 % of control | [5] 91 % of control

CC(=O)NC1=NC(=O)/C(=C/Cc2cccs2)N1C
inactive: [8] 101 % of control | [9] 108 % of control

CC(C)C(Nc1sc([N+](=O)[O-])cc1[N+](=O)[O-])C(=O)O (stereo unspecified)
inactive: [1] 90 % of control | [2] 102 % of control | [3] 107 % of control

CCCCNC(=S)S
inactive: [8] 100 % of control | [5] 100 % of control | [9] 102 % of control | [6] 92 % of control | [10] 100 % of control | [7] 94 % of control

C1CO[P+]2(O1)OCCO2
inactive: endpoint: mean survival time, dose: 100.0 mg/kg/injection, schedule: Q04DX002 (ip), vehicle: saline 95 % of control | endpoint: mean survival time, dose: 200.0 mg/kg/injection, schedule: Q04DX002 (ip), vehicle: saline 107 % of control | endpoint: mean survival time, dose: 400.0 mg/kg/injection, schedule: Q04DX002 (ip), vehicle: saline 95 % of control

COc1ccc(C2=CSc3ccccc3N2)cc1
inactive: [13] 96 % of control | endpoint: mean survival time, dose: 200.0 mg/kg/injection, schedule: Q04DX002 (ip), vehicle: saline with Tween-80 104 % of control

CC(C(=O)c1ccccc1)N(C)C (stereo unspecified)
inactive: endpoint: mean survival time, dose: 100.0 mg/kg/injection, schedule: Q04DX003 (ip), vehicle: saline 100 % of control

O=C(CCOP(=O)(N(CCCl)CCCl)N1CC1)OCc1ccccc1 (stereo unspecified)
inactive: endpoint: mean survival time, dose: 25.0 mg/kg/injection, schedule: Q01DX009 (ip), vehicle: Klucel (hydroxypropylcellulose) (HPC) 97 % of control | endpoint: mean survival time, dose: 50.0 mg/kg/injection, schedule: Q01DX009 (ip), vehicle: Klucel (hydroxypropylcellulose) (HPC) 94 % of control | endpoint: mean survival time, dose: 100.0 mg/kg/injection, schedule: Q01DX009 (ip), vehicle: Klucel (hydroxypropylcellulose) (HPC) 97 % of control | endpoint: mean survival time, dose: 125.0 mg/kg/injection, schedule: Q01DX001 (ip), vehicle: Klucel (hydroxypropylcellulose) (HPC) 98 % of control | endpoint: mean survival time, dose: 200.0 mg/kg/injection, schedule: Q01DX009 (ip), vehicle: Klucel (hydroxypropylcellulose) (HPC) 97 % of control | endpoint: mean survival time, dose: 250.0 mg/kg/injection, schedule: Q01DX001 (ip), vehicle: Klucel (hydroxypropylcellulose) (HPC) 107 % of control | endpoint: mean survival time, dose: 400.0 mg/kg/injection, schedule: Q01DX009 (ip), vehicle: Klucel (hydroxypropylcellulose) (HPC) 107 % of control | endpoint: mean survival time, dose: 500.0 mg/kg/injection, schedule: Q01DX001 (ip), vehicle: Klucel (hydroxypropylcellulose) (HPC) 103 % of control | endpoint: mean survival time, dose: 1000.0 mg/kg/injection, schedule: Q01DX001 (ip), vehicle: Klucel (hydroxypropylcellulose) (HPC) 95 % of control

N=c1sc2ccccc2n1CC(=O)O
inactive: [1] 100 % of control

CC#CCOCC(O)CCl (stereo unspecified)
inactive: endpoint: median survival time, dose: 50.0 mg/kg/injection, schedule: Q01DX005 (ip), vehicle: saline 97 % of control | endpoint: median survival time, dose: 50.0 mg/kg/injection, schedule: Q01DX005 (ip), vehicle: suspension in saline 104 % of control | endpoint: median survival time, dose: 100.0 mg/kg/injection, schedule: Q01DX005 (ip), vehicle: saline 94 % of control | endpoint: median survival time, dose: 100.0 mg/kg/injection, schedule: Q01DX005 (ip), vehicle: suspension in saline 101 % of control | endpoint: median survival time, dose: 200.0 mg/kg/injection, schedule: Q01DX005 (ip), vehicle: saline 97 % of control | endpoint: median survival time, dose: 200.0 mg/kg/injection, schedule: Q01DX005 (ip), vehicle: suspension in saline 96 % of control | endpoint: median survival time, dose: 400.0 mg/kg/injection, schedule: Q01DX005 (ip), vehicle: saline 117 % of control

NC(Cc1c[nH]c2ccccc12)C(=O)O (stereo unspecified)
inactive: endpoint: mean survival time, dose: 50.0 mg/kg/injection, schedule: Q01DX001 (ip), vehicle: saline with Tween-80 98 % of control | [1] 98 % of control | [2] 101 % of control

CP1(=S)CCC(O)(c2ccccc2)CC1 (stereo unspecified)
inactive: [11] 101 % of control | endpoint: mean survival time, dose: 25.0 mg/kg/injection, schedule: Q04DX002 (ip), vehicle: saline with Tween-80 91 % of control | [12] 89 % of control | endpoint: mean survival time, dose: 50.0 mg/kg/injection, schedule: Q04DX002 (ip), vehicle: saline with Tween-80 91 % of control | [8] 97 % of control | [13] 95 % of control

CN(Cc1cnc2nc(N)nc(N)c2n1)c1ccc(C(=O)NC(CCC(=O)O)C(=O)NC(CC(=O)O)C(=O)O)cc1 (stereo unspecified)
inactive: endpoint: mean survival time, dose: 1.0 mg/kg/injection, schedule: Q01DX009 (ip), vehicle: sodium bicarbonate 100 % of control | endpoint: mean survival time, dose: 2.0 mg/kg/injection, schedule: Q01DX009 (ip), vehicle: sodium bicarbonate 111 % of control | endpoint: mean survival time, dose: 5.0 mg/kg/injection, schedule: Q01DX009 (ip), vehicle: sodium bicarbonate 121 % of control | endpoint: mean survival time, dose: 50.0 mg/kg/injection, schedule: Q01DX009 (ip), vehicle: sodium bicarbonate 105 % of control

N#Cc1cc(Cl)c(OCc2ccccc2)c(Cl)c1
inactive: [1] 87 % of control | [3] 101 % of control

O=c1c2ccccc2oc2ccccc12
inactive: [12] 95 % of control | [8] 100 % of control | [9] 93 % of control

CC(=O)NC(=S)NC(C)=O
inactive: endpoint: mean survival time, dose: 75.0 mg/kg/injection, schedule: Q04DX003 (ip), vehicle: saline 103 % of control | endpoint: mean survival time, dose: 150.0 mg/kg/injection, schedule: Q04DX003 (ip), vehicle: saline 103 % of control | endpoint: mean survival time, dose: 300.0 mg/kg/injection, schedule: Q04DX003 (ip), vehicle: saline 107 % of control
